The nature of one data set: in vivo. The method, then:
The ocular pharmacokinetic behavior of EDTA, when administered as a component of Formulation 1, was evaluated in rabbits over a period of five days. Two healthy male rabbits, each approximately 2.5 to 3 kg in body weight, were used for the study.
On day 1 of the study, one drop of Formulation 1 was topically instilled in each eye of both rabbits (four eyes total). No additional eye drops were administered during the course of the study. Samples of aqueous humor were extracted at 15 min, 30 min, 1 hr, 4 hrs, 3 days, and 5 days following administration (as indicated in the following table). Vitreous humor was extracted at 5 days following administration from all four eyes. The concentration of EDTA was measured in all the samples of aqueous humor and vitreous humor by HPLC analysis.
In the following in vivo experiment, the ocular pharmacokinetic behavior of EDTA, when administered with MSM as permeation enhancing penetrating agent, was evaluated in rabbits over a period of five days. Two healthy male rabbits, each approximately 2.5 to 3 Kg in body weight, were used for the study.
An eye drop formulation of the invention, was prepared as follows: High purity de-ionized (DI) water (500 ml) was filtered via a 0.2 micron filter. MSM (27 g), EDTA (13 g), and L-carnosine (5 g) were added to the filtered DI water, and mixed until visual transparency was achieved, indicating dissolution. The mixture was poured into 10 ml bottles each having a dropper cap. On a weight percent basis, the eye drops had the following composition: […]

Data set [1] in a line: EDTA pharmacokinetic study: 14C-EDTA in structures of the rat eye (Example 25).
Procedure: Objectives. Determine the amount of C-14 labeled EDTA that penetrates into the various structures of the rat eye (cornea, aqueous humor, lens, vitreous, and retina), using eye drops that contain MSM. Carry out a comparison of two different eye drop formulations that differed in their EDTA concentration.
8 μl of Eye Drop 1 was applied to the rats' eyes. […] The eyeballs were quickly washed 6 times in 5 ml of saline each time. Aqueous humor was aspirated from both eyes and dispensed in 50 μl of PBS. Cornea, lens, vitreous and retina from each eye were separated and placed in Eppendorf tubes containing H2O and 10N NaOH in the following ratio:
8 μl of Eye Drop 2 was applied to the rat eye. After 0.5, 2 and 4 hours, the rats were sacrificed and the experiment conducted in the same way as for Eye Drop 1.
For data set [2] the following is noted: not told.
Source text: (§1) The same study design and experimental setup was used as described in the above experiments.
Another data set concerns rat lens organ culture. Description: Oxidation-induced toxicity in rat lens organ culture (Example 26). In kind it is cell-based. As to conditions: 7 days. The source says: Materials. […] All cell culture medium components were from Invitrogen. Animals. […] Lens Culture. The rat lenses were dissected and washed with 1% penicillin/streptomycin in sterile PBS. […] The lenses were visualized under a Nikon Eclipse 200 and photographs were taken using a Multidimensional Imaging System. [table] Experimental Procedure. 1. Sacrificed seven rats, removed the eyeballs as soon as possible, and put them into a tube containing PBS with 0.1% gentamicin. 2. Dissected the lenses immediately and washed with PBS. 3. […] Each treatment was performed in 2 wells. Final concentrations for the six treatments were as follows: […] After 7 days of lens culture, took photographs and determined level of light transparency through the lenses.

The test system of data set [3] is Human lens epithelial cells (HLEC). Description: Cell viability following oxidation-induced toxicity in human lens epithelial cells (Example 27). In kind it is cell-based. As to conditions: oxidants, 16 hrs; 4 mM MSM, 0.5 mM EDTA. The method, then:
Materials. […] All cell culture medium components were from Invitrogen. Cell Culture and Treatment. […] Cell Viability. Cell survival was determined by Trypan Blue staining and counting with a hemocytometer. Dead cells stain blue, while live cells exclude Trypan Blue. Cell viability is represented as the number of live cells divided by the total number of cells, expressed as a percentage. [[[…]]] Experimental Procedure. 1. Seeded 0.5×10^5/ml of HLEC (Passage 5) into three 12-well plates, incubated at 37° C. for overnight. 2. […] Added the oxidation reagents and MSM and/or EDTA to the proper wells. […] Ferrous ammonium sulfate (FAS) 10 μM, ADP 100 μM, H2O2 100 μM • Fenton': FAS 10 μM, ADP 100 μM, H2O2 100 μM • Ferric Chloride: […]

The conditions of data set [4]: @ 79° F.; cited from earlier work.
A short description of data set [5]: Intestinal membrane permeation, MSM as enhancer, dexamethasone as active (Example 15). In kind it is in vitro ADME.
Source text: as §1
Data set [6] in a line: Dexamethasone solubility experiment with increasing MSM concentration (Example 16). In kind it is physicochemical.
For data set [7] the following is noted: 54 mg MSM/ml.
Source text: as §1
Where [8] appears, read: 5 days after one drop of Formulation 1, per rabbit eye.

≈ marks a conversion by molar mass, not a printed value. Where “and” joins values, the source holds several entries; their conditions need not be identical. Equal values may be shown once. Read-outs that look alike come from different tables or passages of the source.

As for `O=C(O)CN(CCN(CC(=O)O)CC(=O)O)CC(=O)O` [EDTA, ethylenediamine tetraacetic acid], the “Concentration of EDTA, aqueous humor” value in the data set “in vivo” (3 days after one drop of Formulation 1, per rabbit eye) was 0.4 micrograms per milliliter and 0.7 micrograms per milliliter; in the data set “in vivo” (setting [8]) it was 0.5 micrograms per milliliter and 0.4 micrograms per milliliter. The “Concentration of EDTA, vitreous humor” value in the data set “in vivo” (setting [8]) was 0.5 micrograms per milliliter and 0.7 micrograms per milliliter. In addition, the concentration at 15 min in the data set “in vivo” (male, rabbit, aqueous humor, topical, 1 drop of Formulation 1 per eye, Concentration of EDTA, aqueous humor, 15 min after one drop of Formulation 1, per rabbit eye, HPLC) was 1300 ng/mL. The concentration at 30 min in “in vivo” (male, rabbit, aqueous humor, topical, 1 drop of Formulation 1 per eye, Concentration of EDTA, aqueous humor, 30 min after one drop of Formulation 1, per rabbit eye) amounted to 10700 ng/mL; in the data set “in vivo” (male, rabbit, aqueous humor, topical, 1 drop of Formulation 1 per eye, concentration of EDTA in aqueous humor, 30 minutes following administration of Formulation 1), 10700 ng/mL. Besides, the concentration at 1 hr in the data set “in vivo” (male, rabbit, aqueous humor, topical, 1 drop of Formulation 1 per eye, Concentration of EDTA, aqueous humor, 1 hr after one drop of Formulation 1, per rabbit eye) came to 5300 ng/mL. In addition, the concentration at 4 hrs in “in vivo” (male, rabbit, aqueous humor, topical, 1 drop of Formulation 1 per eye, Concentration of EDTA, aqueous humor, 4 hrs after one drop of Formulation 1, per rabbit eye) was found to be 900 ng/mL. Besides, the concentration at 3 days in the data set “in vivo” (male, rabbit, aqueous humor, topical, 1 drop of Formulation 1 per eye, Concentration of EDTA, aqueous humor, 3 days after one drop of Formulation 1, per rabbit eye) came to 500 ng/mL. Besides, the concentration at 5 days in “in vivo” (male, rabbit, aqueous humor, topical, 1 drop of Formulation 1 per eye, Concentration of EDTA, aqueous humor, 5 days after one drop of Formulation 1, per rabbit eye) is 600 ng/mL; in the data set “in vivo” (male, rabbit, vitreous humor, topical, 1 drop of Formulation 1 per eye, Concentration of EDTA, vitreous humor, 5 days after one drop of Formulation 1, per rabbit eye) it was 600 ng/mL. For the same compound, for the setting “in the absence of MSM”, the “amount present in the aqueous humor” value is given as “very little”. Also, the “dose dependency of nanograms of EDTA in eye structures” value in [1] (Eye Drop 1 (60.5 mM EDTA) versus Eye Drop 2 (12.5 mM EDTA)) was “Dose dependency was observed, particularly in the aqueous humor, the cornea, and the lens”. Further, the “distribution among eye structures” value in data set [1] (Eye Drop 1, two-hour time point) is reported as “The majority of the EDTA was found in the aqueous humor”.

Take `NCCC(=O)N[C@@H](Cc1cnc[nH]1)C(=O)O` [L-carnosine]: the “increase of permeation over control” value in data set [2] was “about 2.5%”.

Turning to `CS(C)(=O)=O` [MSM, methylsulfonylmethane], in the data set with rat lens organ culture (1 mM ascorbate + 100 μM hydrogen peroxide, oxidant alone 32%, 4 mM MSM, 0.5 mM EDTA), the “Light transmission through the lens, of control” value was found to be 57%. Besides, the “Light transmission through the lens, of untreated control” value with rat lens organ culture (50 mM glucose, glucose alone 45%, 4 mM MSM, 0.5 mM EDTA) is listed as 68%. Besides, the “lens opacification in photographs of the lens culture” value in the data set with rat lens organ culture (glucose or ascorbate plus hydrogen peroxide) is “mitigated lens opacification by both oxidants”. Also, the “percent cell viability (Trypan Blue)” value in [3] was “increased the percent cell viability for all oxidants”. In data set [4], the water solubility is reported as 34 % w/v.

Consider `O=C([O-])CN(CC(=O)[O-])[14CH2][14CH2]N(CC(=O)[O-])CC(=O)[O-].[Na+].[Na+].[Na+].[Na+]` [^14C-EDTA, Ethylenediamine tetraacetic acid-1,2-^14C tetrasodium], for which the “increase in amount in the aqueous humor in the presence of MSM” value (30-minute time point, 8 μl eye drop on rat cornea, MSM versus PBS) is given as “approximately 5 fold”.

On to `C[C@@H]1C[C@H]2[C@@H]3CCC4=CC(=O)C=C[C@]4(C)[C@@]3(F)[C@@H](O)C[C@]2(C)[C@@]1(O)C(=O)CO` [dexamethasone], for which the “increase on the diffusion rate” value in [5] (27 mg MSM/ml) worked out at 25%. For the same compound, the “permeation increase over control” value in data set [5] (200 mg MSM/mL) is on record as “approximately 50%”. Moreover, the solubility in data set [6] (MSM concentration 250 mg/mL) worked out at 45 mg/100 mL; in data set [6] (MSM solution, aqueous with cosolvent or surfactant or cyclodextrin, MSM 30 mg/ml, read-out: Solubility of Dexamethasone) it was 160 µg/mL (≈ 408 µM); in data set [6] (MSM solution, aqueous with cosolvent or surfactant or cyclodextrin, MSM 50 mg/ml, read-out: Solubility of Dexamethasone), 175 µg/mL (≈ 446 µM); in [6] (MSM solution, aqueous with cosolvent or surfactant or cyclodextrin, MSM 100 mg/ml, read-out: Solubility of Dexamethasone) it was 190 µg/mL (≈ 484 µM); in data set [6] (MSM solution, aqueous with cosolvent or surfactant or cyclodextrin, MSM 150 mg/ml, read-out: Solubility of Dexamethasone) it was 270 µg/mL (≈ 688 µM); in [6] (MSM solution, aqueous with cosolvent or surfactant or cyclodextrin, MSM 200 mg/ml, read-out: Solubility of Dexamethasone) it was 340 µg/mL (≈ 866 µM). In addition, the solubility in data set [6] (MSM solution, aqueous with cosolvent or surfactant or cyclodextrin, MSM 250 mg/ml, read-out: Solubility of Dexamethasone) was determined as 450 µg/mL (≈ 1150 µM). In data set [6] (MSM concentration of 30 mg/mL), the solubility change entry is given as “not significantly increased”. This compound also yielded a water solubility in [6] (room temperature, no MSM) of 10 mg/100 mL.

`N[C@@H](CCC(=O)N[C@@H](CS)C(=O)NCC(=O)O)C(=O)O` [glutathione]: the “effect of MSM on the diffusion rate” value in data set [7] is “no effect”.

The record behind these values is US20060177430A1, “Treatment of ocular disorders with ophthalmic formulations containing methylsulfonylmethane as a transport enhancer” (Chakshu Research Inc, priority 2002, published 2006).
